Laboratory results published in paper PMC4232273 (Angewandte Chemie (International Ed. in English), 2014).

Biological target: New Delhi metallo-β-lactamase subclass 1 (NDM-1) (Klebsiella pneumoniae, UniProt C7C422)
Test: 1H NMR monitoring of hydrolysis in E. coli cells expressing NDM-1
Assay type: cell-based

Chain of New Delhi metallo-β-lactamase subclass 1 (NDM-1) (C7C422 29-270, looked up): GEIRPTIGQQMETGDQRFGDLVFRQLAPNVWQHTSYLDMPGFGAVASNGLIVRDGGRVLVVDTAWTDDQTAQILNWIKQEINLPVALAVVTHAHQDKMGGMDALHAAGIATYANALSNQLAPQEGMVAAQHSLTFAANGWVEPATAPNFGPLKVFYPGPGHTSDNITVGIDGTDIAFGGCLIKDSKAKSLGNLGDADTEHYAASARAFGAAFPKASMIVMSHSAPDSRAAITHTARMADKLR

C[C@@H](O)[C@H]1C(=O)N2C(C(=O)O)=C(SCCN=CN)C[C@H]12 [imipenem]
1H NMR monitoring of hydrolysis in E. coli cells expressing NDM-1: These were readily hydrolyzed by the NDM-1 E. coli cells within an hour or so under our experimental conditions
